# From US9522914B2, “Azole derivative” (TAISHO PHARMACEUTICAL CO., LTD, priority 2011, dated 2016)
# Target: Human V1b receptor (Homo sapiens (Human), UniProt P47901)
# Assay: Binding Test for V1b Receptor ([3H]AVP, crude membrane preparation of 293FT cells)
# Settings: inhibition of [3H]AVP binding (0.4 to 1 nmol/L), room temperature, 60 minutes
# Summary of the method: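 Crude membranes from 293FT cells transiently expressing human V1b, incubated with [3H]AVP (0.4 to 1 nmol/L) and compound (0.01 nmol/L–1 μmol/L final) in Tris pH 7.4 with MgCl2 and 0.1% BSA, 60 min at room temperature. Bound label collected by filtration. Nonspecific binding defined with unlabeled AVP; IC50 from dose-response curve.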
# Human V1b receptor, sequence (P47901 whole entry): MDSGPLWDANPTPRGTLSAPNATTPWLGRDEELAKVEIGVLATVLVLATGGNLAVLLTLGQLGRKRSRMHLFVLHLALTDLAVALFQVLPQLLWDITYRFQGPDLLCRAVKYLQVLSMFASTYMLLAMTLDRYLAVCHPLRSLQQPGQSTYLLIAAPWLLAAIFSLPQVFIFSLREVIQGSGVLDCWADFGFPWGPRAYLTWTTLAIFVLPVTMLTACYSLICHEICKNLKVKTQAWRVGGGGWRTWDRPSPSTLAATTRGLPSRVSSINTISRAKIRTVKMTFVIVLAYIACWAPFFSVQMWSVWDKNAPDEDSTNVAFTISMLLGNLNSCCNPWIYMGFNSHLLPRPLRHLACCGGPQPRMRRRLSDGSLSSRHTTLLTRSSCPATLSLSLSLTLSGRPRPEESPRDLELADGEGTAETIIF
row,IC50 [nM],Structure (SMILES)
1,10 to 100,"COc1cccc(-c2nc(-c3ccc(CCN4C[C@@H](C)O[C@@H](C)C4)cc3)nn2CC(=O)NC(C)C)c1 [Example B-29, 2-[3-(4-{2-[(2R,6S)-2,6-dimethylmorpholin-4-yl]ethyl}phenyl)-5-(3-methoxyphenyl)-1H-1,2,4-triazol-1-yl]-N-(propan-2-yl)acetamide]"
2,10 to 100,"COc1cccc(-c2nc(-c3ccc(CCN4CCOCC4C)cc3)nn2CC(=O)NC(C)C)c1 (centres unmarked) [Example B-30, 2-[5-(3-methoxyphenyl)-3-{4-[2-(3-methylmorpholin-4-yl)ethyl]phenyl}-1H-1,2,4-triazol-1-yl]-N-(propan-2-yl)acetamide]"
3,10 to 100,"CCC1COCCN1CCc1ccc(-c2nc(-c3cccc(OC)c3)n(CC(=O)NC(C)C)n2)cc1 (centres unmarked) [Example B-31, 2-[3-{4-[2-(3-ethylmorpholin-4-yl)ethyl]phenyl}-5-(3-methoxyphenyl)-1H-1,2,4-triazol-1-yl]-N-(propan-2-yl)acetamide]"
4,100 to 1000,"COc1cccc(-c2nc(-c3ccc(CCN4CCN(C)CC4)cc3)nn2CC(=O)NC(C)C)c1 [Example B-32, 2-[5-(3-methoxyphenyl)-3-{4-[2-(4-methylpiperazin-1-yl)ethyl]phenyl}-1H-1,2,4-triazol-1-yl]-N-(propan-2-yl)acetamide]"
5,100 to 1000,"COc1cccc(-c2nc(-c3ccc(CCN4CCN(C(C)=O)CC4)cc3)nn2CC(=O)NC(C)C)c1 [Example B-33, 2-[3-{4-[2-(4-acetylpiperazin-1-yl)ethyl]phenyl}-5-(3-methoxyphenyl)-1H-1,2,4-triazol-1-yl]-N-(propan-2-yl)acetamide]"
6,100 to 1000,"COc1cccc(-c2nc(-c3ccc(CCN4CCC(C(N)=O)CC4)cc3)nn2CC(=O)NC(C)C)c1 [Example B-34, 1-[2-(4-{5-(3-methoxyphenyl)-1-[2-oxo-2-(propan-2-ylamino)ethyl]-1H-1,2,4-triazol-3-yl}phenyl)ethyl]piperidine-4-carboxamide]"
7,100 to 1000,"COc1cccc(-c2nc(-c3ccc(CCN4CCC(NC(C)=O)CC4)cc3)nn2CC(=O)NC(C)C)c1 [Example B-35, 2-[3-(4-{2-[4-(acetylamino)piperidin-1-yl]ethyl}phenyl)-5-(3-methoxyphenyl)-1H-1,2,4-triazol-1-yl]-N-(propan-2-yl)acetamide]"
8,10 to 100,"COc1cccc(-c2nc(-c3ccc(CCN4CCC(C)(O)CC4)cc3)nn2CC(=O)NC(C)C)c1 [Example B-36, 2-[3-{4-[2-(4-hydroxy-4-methylpiperidin-1-yl)ethyl]phenyl}-5-(3-methoxyphenyl)-1H-1,2,4-triazol-1-yl]-N-(propan-2-yl)acetamide]"
9,< 10,"COc1cccc(-c2nc(-c3ccc(CCN4CC5(CCOCC5)C4)cc3)nn2CC(=O)NC(C)C)c1 [Example B-37, 2-[5-(3-methoxyphenyl)-3-{4-[2-(7-oxa-2-azaspiro[3.5]non-2-yl)ethyl]phenyl}-1H-1,2,4-triazol-1-yl]-N-(propan-2-yl)acetamide]"
10,10 to 100,"COc1cccc(-c2nc(-c3ccc(CCN4CCC(C(F)(F)F)CC4)cc3)nn2CC(=O)NC(C)C)c1 [Example B-38, 2-[5-(3-methoxyphenyl)-3-(4-{2-[4-(trifluoromethyl)piperidin-1-yl]ethyl}phenyl)-1H-1,2,4-triazol-1-yl]-N-(propan-2-yl)acetamide]"
11,10 to 100,"COc1cccc(-c2nc(-c3ccc(CCN4CCC(F)CC4)cc3)nn2CC(=O)NC(C)C)c1 [Example B-39, 2-[3-{4-[2-(4-fluoropiperidin-1-yl)ethyl]phenyl}-5-(3-methoxyphenyl)-1H-1,2,4-triazol-1-yl]-N-(propan-2-yl)acetamide]"
12,10 to 100,"COc1cccc(-c2nc(-c3ccc(CCN4CCC(F)(F)CC4)cc3)nn2CC(=O)NC(C)C)c1 [Example B-40, 2-[3-{4-[2-(4,4-difluoropiperidin-1-yl)ethyl]phenyl}-5-(3-methoxyphenyl)-1H-1,2,4-triazol-1-yl]-N-(propan-2-yl)acetamide]"
13,10 to 100,"COc1cccc(-c2nc(-c3ccc(CCN4C(C)COCC4C)cc3)nn2CC(=O)NC(C)C)c1 (centres unmarked) [Example B-41, 2-[3-{4-[2-(3,5-dimethylmorpholin-4-yl)ethyl]phenyl}-5-(3-methoxyphenyl)-1H-1,2,4-triazol-1-yl]-N-(propan-2-yl)acetamide]"
14,< 10,"COc1cccc(-c2nc(-c3ccc(CCN4CC5(COC5)C4)cc3)nn2CC(=O)NC(C)C)c1 [Example B-42, 2-[5-(3-methoxyphenyl)-3-{4-[2-(2-oxa-6-azaspiro[3.3]hept-6-yl)ethyl]phenyl}-1H-1,2,4-triazol-1-yl]-N-(propan-2-yl)acetamide]"
15,21,"CC(C)NC(=O)Cc1nn(-c2ccc(CCN3CCCCC3)cc2)cc1-c1cccc(Cl)c1 [Example C-01, 2-[4-(3-chlorophenyl)-1-{4-[2-(piperidin-1-yl)ethyl]phenyl}-1H-pyrazol-3-yl]-N-(propan-2-yl)acetamide]"
16,13,"CC(C)NC(=O)Cc1cn(-c2ccc(CCN3CCCCC3)cc2)nc1-c1cccc(Cl)c1 [Example C-02, 2-[3-(3-chlorophenyl)-1-{4-[2-(piperidin-1-yl)ethyl]phenyl}-1H-pyrazol-4-yl]-N-(propan-2-yl)acetamide]"

row,IC50 [nM],Structure (SMILES)
1,8.6,"CC(C)NC(=O)Cc1cn(-c2ccc(CCN3CCOCC3)cc2)nc1-c1cccc(Cl)c1 [Example C-03, 2-[3-(3-chlorophenyl)-1-{4-[2-(morpholin-4-yl)ethyl]phenyl}-1H-pyrazol-4-yl]-N-(propan-2-yl)acetamide]"
2,10 to 100,"CC(C)NC(=O)Cc1cn(-c2ccc(CCN3CC4(COC4)C3)cc2)nc1-c1cccc(Cl)c1 [Example C-04, 2-[3-(3-chlorophenyl)-1-{4-[2-(2-oxa-6-azaspiro[3.3]hept-6-yl)ethyl]phenyl}-1H-pyrazol-4-yl]-N-(propan-2-yl)acetamide]"
3,21,"CC(C)NC(=O)Cc1cc(-c2ccc(CCN3CCOCC3)cc2)nn1-c1cccc(Cl)c1 [Example C-05, 2-[1-(3-chlorophenyl)-3-{4-[2-(morpholin-4-yl)ethyl]phenyl}-1H-pyrazol-5-yl]-N-(propan-2-yl)acetamide]"
4,17,"CC(C)NC(=O)Cn1nc(-c2ccc(CCN3CCCCC3)cc2)cc1-c1cccc(Cl)c1 [Example C-06, 2-[5-(3-chlorophenyl)-3-{4-[2-(piperidin-1-yl)ethyl]phenyl}-1H-pyrazol-1-yl]-N-(propan-2-yl)acetamide]"
5,7.1,"CC(C)NC(=O)Cn1nc(-c2ccc(CCN3CCOCC3)cc2)cc1-c1cccc(Cl)c1 [Example C-07, 2-[5-(3-chlorophenyl)-3-{4-[2-(morpholin-4-yl)ethyl]phenyl}-1H-pyrazol-1-yl]-N-(propan-2-yl)acetamide]"
6,10 to 100,"CC(C)NC(=O)Cc1nc(-c2ccc(CCN3CCCCC3)cc2)oc1-c1cccc(Cl)c1 [Example C-08, 2-[5-(3-chlorophenyl)-2-{4-[2-(piperidin-1-yl)ethyl]phenyl}-1,3-oxazol-4-yl]-N-(propan-2-yl)acetamide]"
7,27,"CC(C)NC(=O)Cc1nc(-c2ccc(CCN3CCOCC3)cc2)oc1-c1cccc(Cl)c1 [Example C-09, 2-[5-(3-chlorophenyl)-2-{4-[2-(morpholin-4-yl)ethyl]phenyl}-1,3-oxazol-4-yl]-N-(propan-2-yl)acetamide]"
8,6.5,"CC(C)NC(=O)Cc1oc(-c2ccc(CCN3CCCCC3)cc2)nc1-c1cccc(Cl)c1 [Example C-10, 2-[4-(3-chlorophenyl)-2-{4-[2-(piperidin-1-yl)ethyl]phenyl}-1,3-oxazol-5-yl]-N-(propan-2-yl)acetamide]"
9,3.9,"CC(C)NC(=O)Cc1oc(-c2ccc(CCN3CCOCC3)cc2)nc1-c1cccc(Cl)c1 [Example C-11, 2-[4-(3-chlorophenyl)-2-{4-[2-(morpholin-4-yl)ethyl]phenyl}-1,3-oxazol-5-yl]-N-(propan-2-yl)acetamide]"
10,16,"CC(C)NC(=O)Cc1nc(-c2ccc(CCN3CCCCC3)cc2)sc1-c1cccc(Cl)c1 [Example C-13, 2-[5-(3-chlorophenyl)-2-{4-[2-(piperidin-1-yl)ethyl]phenyl}-1,3-thiazol-4-yl]-N-(propan-2-yl)acetamide]"
11,14,"CC(C)NC(=O)Cc1nc(-c2ccc(CCN3CCOCC3)cc2)sc1-c1cccc(Cl)c1 [Example C-14, 2-[5-(3-chlorophenyl)-2-{4-[2-(morpholin-4-yl)ethyl]phenyl}-1,3-thiazol-4-yl]-N-(propan-2-yl)acetamide]"
12,22,"CC(C)NC(=O)Cc1nc(-c2ccc(CCN3CC4(COC4)C3)cc2)sc1-c1cccc(Cl)c1 [Example C-15, 2-[5-(3-chlorophenyl)-2-{4-[2-(2-oxa-6-azaspiro[3.3]hept-6-yl)ethyl]phenyl}-1,3-thiazol-4-yl]-N-(propan-2-yl)acetamide]"
13,100 to 1000,"CC(C)NC(=O)Cc1nc(-c2cccc(CCN3CCCCC3)c2)sc1-c1cccc(Cl)c1 [Example C-16, 2-[5-(3-chlorophenyl)-2-{3-[2-(piperidin-1-yl)ethyl]phenyl}-1,3-thiazol-4-yl]-N-(propan-2-yl)acetamide]"
14,100 to 1000,"CC(C)NC(=O)Cc1nc(-c2cccc(CCN3CCOCC3)c2)sc1-c1cccc(Cl)c1 [Example C-17, 2-[5-(3-chlorophenyl)-2-{3-[2-(morpholin-4-yl)ethyl]phenyl}-1,3-thiazol-4-yl]-N-(propan-2-yl)acetamide]"
15,9,"CC(C)NC(=O)CC1=C(c2cccc(Cl)c2)C(=O)N(c2ccc(CCN3CCOCC3)cc2)C1=O [Example C-18, 2-[4-(3-chlorophenyl)-1-{4-[2-(morpholin-4-yl)ethyl]phenyl}-2,5-dioxo-2,5-dihydro-1H-pyrrol-3-yl]-N-(propan-2-yl)acetamide]"
16,2.2,"CC(C)NC(=O)Cn1c(-c2cccc(Cl)c2)cn(-c2ccc(CCN3CCOCC3)cc2)c1=O [Example C-19, 2-[5-(3-chlorophenyl)-3-{4-[2-(morpholin-4-yl)ethyl]phenyl}-2-oxo-2,3-dihydro-1H-imidazol-1-yl]-N-(propan-2-yl)acetamide]"
